From patent US11679113B2, “Anticancer treatment for uveal melanoma” (The Regents of the University of California, priority 2019, dated 2023)
Entries after “also recorded” stand apart in the source; their conditions may differ. Numbered stars: 1 amine (or outer) side, 2 acyl side, 3 side chain; on linkers, the order of the positions; unused ones are H or OH. Bridge positions count the residues as written; N and C are the ends. Square brackets hold non-standard residues; d marks the D form. Peptide text beside a SMILES is read from it. * marks the point of attachment. Leu(3R-OH,Nα-propionyl) = CCC(=O)N[C@H](C(=O)*)[C@H](O)C(C)C; X1 = CC(C)[C@@H](O[*:3])[C@H](N[*:1])C(=O)[*:2]; NMeT = CN[C@H](C(=O)O)[C@@H](C)O; dPhLac = O=C(O)[C@H](O)Cc1ccccc1; NMeA = CN[C@@H](C)C(=O)O; NMeDha = C=C(NC)C(=O)O

How the values were obtained:
[1] = test system: OM cells; assay: FAKi/MEKi combination cell viability, synergy by Chou-Talalay CI and Bliss score; format: cell-based, human
Excerpt: Applicant performed detailed combinatorial analysis achieving ERK pathway inhibition by a clinical MEK inhibitor, trametinib, combined with FAKi (VS-4718) at a series of dilutions of drug combinations. Drug combinations scored as synergistic (i. e., > than additive) are identified by using the most widely used methodologies: the Chou-Talalay combination index (CI) (Chou, 2010; Chou, 1984; and Chou, 2006) and the Bliss independence score (ΔBliss) (Chou, 2010; Chou, 2006; Berenbaum, 1989; Greco, 1995; and Geary, 2013) as Applicant recently described (Yamaguchi et al., 216).

[2] = test system: ERK; assay: Immunoblot of ERK phosphorylation in UM cells; format: cell-based, human; settings: OMM1.3 cells
Procedure: (§1) Western blot assays were performed as described previously (Feng et al., 2014b). Western blots were developed using Immobilon Western Chemiluminescent HRP substrate (Millipore, MA) according to the manufacturer's instructions.

[3] = test system: FAK; assay: Immunoblot of FAK phosphorylation (pY397-FAK) in UM cells; format: cell-based, human; settings: OMM1.3 / Mel270 cells
Procedure: as §1

[4] = test system: SK-MEL-28 cells (BRAF mutant SKCM); assay: Cell viability assay in SKCM control cell line; format: cell-based, human
Procedure: (§2) HEK293 and HEK293T cells were cultured in DMEM (Sigma-Aldrich Inc., MO) containing 10% FBS (Sigma-Aldrich Inc., MO) and 1× antibiotic/antimycotic solution (Sigma-Aldrich Inc., MO). Culture conditions for UM cells (OMM1.3, OMM1.5, MEL202, Mel270 and 92.1) have been described elsewhere (Schmitt et al., 2007; Zuidervaart et al., 2005). SK-MEL-28 cells were purchased from ATCC and cultured following ATCC recommendations in EMEM containing 10% FBS. VS-4718 (PND-1186) was purchased from MedChemExpress (MCE) pre-prepared as a 10 mM solution in DMSO. FR900359 (FR) was graciously supplied by the lab of Dr. Evi Kostenis.
(§3) Cell growth assays were performed as described previously (Yamaguchi et al., 2016). Cells were cultured in 96-well-plate and treated with drugs for 72 hr. The manufacturer's instructions of Alamar Blue Cell Viability Reagent were followed to complete the assay.

[5] = test system: UM cell lines (92.1, OMM1.3, OMM1.5, Mel270, Mel202; GNAQ mutant); assay: Cell viability assay (Alamar Blue) in UM cell lines; format: cell-based, human
Procedure: as §2, §3

[6] = test system: FAK; assay: Immunoblot of FAK phosphorylation in Gαq-DREADD expressing HEK293 cells stimulated with CNO; format: cell-based, human; settings: CNO stimulation, 1 hr pre-treatment
Procedure: as §1

[7] = test system: ERK; assay: Immunoblot of ERK phosphorylation in Gαq-DREADD expressing HEK293 cells stimulated with CNO; format: cell-based, human; settings: CNO stimulation, 1 hr pre-treatment
Procedure: as §1

[8] = test system: YAP-signature genes; assay: RNA-seq and Gene Set Enrichment Analysis of UM cells treated with FAKi; format: cell-based, human; settings: OMM1.3, 1 μM, 2 hr
Excerpt: FAK is at the intersection of multiple signaling pathways that promote cancer progression (Sulzmaier et al., 2014), but it is not clear which downstream targets of FAK play a critical role in UM. As an approach to identify key downstream targets of the Gαq− FAK signaling axis, Applicant performed transcriptomic RNA-sequencing on UM cells treated with FAKi (i.e., FAK inhibitor), and performed Gene Set Enrichment Analysis (GSEA) (Subramanian et al., 2005) to characterize the transcriptional effects of inhibiting Gαq and FAK at the pathway level using over 10,000 gene sets from the MSigDB (Molecular Signatures Database), including two sub-collections of oncogenic signatures and hallmark gene sets that Applicants added to the database (Liberzon et al., 2015). […] These include the downregulation of genes described as stimulated by KRAS and EGFR and cytokines such as IL21 and IL15, consistent with the likely role in the activation of growth promoting pathways by FAK (Sulzmaier et al., 2014). […] In both cases, FAK inhibition or knockdown reduced YAP pY357 and increased pS127, and reduced mRNA levels of YAP targets and YAP activity measured by luciferase reporter assay (FIGS. 7A-7E), similar to UM cells.

[9] = test system: YAP; assay: YAP nuclear/cytoplasmic localization (immunofluorescence, fractionation western blot) in UM cells; format: cell-based, human; settings: OMM1.3, 1 μM
Procedure: Cells cultured on coverslips were washed with PBS, fixed with 3.7% formaldehyde in phosphate-buffered saline (PBS) for 30 min, and permeabilized using 0.05% Triton X-100 for 10 min. Fixed cells were blocked with 3% FBS-containing PBS for 30 min, and incubated with YAP (Cell signaling technology, MI) antibody (in 3% FBS-PBS otherwise stated) for 1 hr at room temperature. The reaction was visualized with Alexa-labeled secondary antibodies (Invitrogen, CA). Samples were mounted in PBS buffer containing Hoechst 33342 (Molecular Probes, OR) for nuclear staining. Images were acquired with an Axio Imager Z1 microscope equipped with ApoTome system controlled by ZEN 2012 software (Carl Zeiss, NY).
Subcellular fractionated lysates were generated using NE-PER Nuclear and Cytoplasmic Extraction Reagents (Thermo Scientific, CO) following manufacturer instructions.

[10] = test system: 92.1 xenograft; assay: 92.1 OM xenografts treated with MEKi, FAKi or both; format: in vivo, mice; settings: 92.1 xenografts; trametinib 1 mg/kg QD i.p., VS-4718 50 mg/kg BID p.o.
Excerpt: FIGS. 17A and 17B show potent antitumoral and cytotoxic effects of FAKi/MEKi combination in OM xenografts. […] (FIG. 17B) Quantification of IHC tumor sections stained for BrdU, cleaved-caspase3 (Cl-Casp3), pERK1/2, and YAP. For each panel, the bars from left to right are control, MEKi, FAKi and MEKi+FAKi. Data are mean±SEM (7 mice/group), *p<0.05;**p<0.01; ***p<0.001; n. s. not significant.

[11] = test system: UM tumor xenografts; assay: Human UM tumor xenografts (Mel270, OMM1.3) with VS-4718 in vivo treatment; design: species or system mice
Procedure: All animal studies were carried out according the University of California San Diego (UCSD) Institutional Animal Care and Use Committee (IACUC)-approved protocol (S15195). Female NOD.Cg-Prkdcscid Il2rgtm1wjl/SzJ mice (commonly known as […], Jackson Laboratory, Maine), 6 to 8 weeks of age and weighing 18 to 20 g, were used in the study of UM cells, housed in appropriate sterile filter-capped cages, and provided food and water ad libitum. All procedures were essentially as previously described (Feng et al., 2014b; Schrage et al., 2015; Vaque et al., 2013). Briefly, exponentially growing cultures were harvested, washed, resuspended in RPMI 1640, and 2×10^6 viable cells were transplanted subcutaneously into the flanks of mice. For tumor growth analysis, tumor volume was assessed as [(LW^2/2); where L and W represent the length and the width of the tumor]. The animals were monitored twice weekly for tumor development. Results of animal experiments were expressed as mean±SEM of a total of tumors analyzed. To administer VS-4718 (Verastem Oncology; Needham, Mass.) to mice, 10 mg/ml VS-4718 was prepared in 0.5% carboxymethyl cellulose (CMC) (C5678, Sigma-Aldrich; St. Louis, Mo.) 0.1% Tween 80 (P1754, Sigma Aldrich; St. Louis, Mo.) in sterile water, 100 mg/kg administered via oral gavage twice daily, control group was treated with vehicle.
The following antibodies were used for immunohistochemistry anti-Ki67 (DAKO) and anti-YAP (CST). Unstained 5 μm paraffin sections were dewaxed in Safeclear II (Fisher Scientific, PA), hydrated through graded alcohols and distilled water, and washed three times with PBS. Antigens were retrieved using or 10 mM citrate buffer boiled in a microwave for 20 min (2 min at 100% power and 18 min at 10% power). The slides were allowed to cool down for 30 min at room temperature, rinsed twice with PBS, incubated in 3% hydrogen peroxide in PBS for 10 min to quench the endogenous peroxidase. […]

[12] = test system: OMM1.3 cells; assay: Immunoblot of cleaved PARP (apoptosis) in UM cells; format: cell-based, human; settings: OMM1.3, 36 hr
Procedure: as §1

[13] = test system: Hippo pathway components (YAP, LATS1, MOB1, MST1); assay: Immunoblot / immunoprecipitation of YAP and Hippo pathway components in UM cells; format: cell-based, human
Procedure: as §1
Cells were lysed with IP lysis buffer [10 mM Tris-Cl (pH 8.0), 150 mM NaCl, 1 mM EDTA, 0.3% CHAPS, 50 mM NaF, 1.5 mM Na3VO4, protease inhibitor (Thermo Scientific, CO), 1 mM DTT, 1 mM PMSF], and centrifuged at 16,000 g for 5 min at 4° C. Supernatants were incubated with first antibody for 1 hr at 4° C., and protein G or protein A conjugated resin for another 1 hr. Resins were then washed 3 times with lysis buffer and boiled in SDS-loading buffer.

[14] = test system: OMM1.3 cells; assay: Colony formation assay in semisolid media (3D culture); format: cell-based, human; settings: OMM1.3, semisolid media
Procedure: 3-dimensional cultures were performed as described previously (Tancioni et al., 2015). Briefly, 10,000 cells were embedded in 1% methylcellulose diluted in growth media and plated onto 6-well poly-hydroxyethyl methacrylic acid (poly-HEMA)-coated plates.

[15] = test system: YAP-target genes CTGF and CYR61; assay: qPCR of YAP-target genes CTGF and CYR61 in UM cells; format: cell-based, human; settings: 1 μM, 2 hr
[16] = after prolonged use; cited from earlier work

For `CNS(=O)(=O)Nc1nccc(Cc2c(C)c3ccc(Oc4ncccn4)cc3oc2=O)c1F` [CH5126766], the “synergy of growth inhibition in combination with FAKi VS-4718” value ([1]; combined with VS-4718) was “synergistic anti-proliferative effects” and the “synergy of anti-proliferative effect in combination with VS-6063 (defactinib)” value ([1]; combined with VS-6063) was “synergistic anti-proliferative effects”.
For `C=C1C(=O)N[C@@H](C)C(=O)N(C)[C@@H](C)C(=O)N[C@@H]([C@H](OC(=O)[C@@H](NC(=O)CC)[C@H](O)C(C)C)C(C)C)C(=O)N(C)[C@@H]([C@@H](C)OC)C(=O)O[C@H](C(C)C)[C@H](NC(C)=O)C(=O)O[C@H](Cc2ccccc2)C(=O)N1C` [FR900359] (Ac-[X1][dPhLac][NMeDha]A[NMeA][X1](Leu(3R-OH,Nα-propionyl))[NMeT](Me); ester 1-C), the “ERK activation in UM cells” value [2] was “diminished”, the “FAK activation (pY397-FAK) in UM cells” value [3] was “diminished” and the “SKCM cell proliferation, result in words” value [4] was “only in UM cells”. The “UM cell viability / proliferation, result in words” value ([5]; UM cell lines) was “inhibition of cell proliferation”.
With `COc1ccc2c(c1)CC[C@@H]1[C@@H]2CC[C@]2(C)[C@@H](NCCCCCCN3C(=O)C=CC3=O)CC[C@@H]12` [U73122] the “FAK activation by Gαq-DREADD in HEK293 cells” value (“FAK activation by Gαq-DREADD” for short) [6] was “did not have an impact” and the “ERK activation by Gαq-DREADD in HEK293 cells” value [7] was “abolished”.
In the case of `CNC(=O)c1ccccc1Nc1cc(Nc2ccc(N3CCOCC3)cc2OC)ncc1C(F)(F)F` [VS-4718], the “expression of YAP-signature genes (RNA-seq, GSEA)” value [8] is reported as “significant downregulation”, the YAP nuclear accumulation [9] is reported as “clearly diminished” and the “antitumoral profile in OM xenografts (cl-Casp3)” value [10] is reported as “cytostatic profile”. For the same compound, the “cytoplasmic retention of YAP in tumors” value ([11]; Mel270 tumors) was “clearly increased”, the “cell proliferation in UM tumors (Ki67)” value ([11]; two UM tumor models (Mel270, OMM1.3)) was “reduces” and the UM tumor size ([11]; two UM tumor models (Mel270, OMM1.3), 100 mg/kg oral gavage twice daily) was “reduces”. The “FAK activation (pY397-FAK) in UM cells” value [3] was “inhibited FAK rapidly; also recorded: decrease in pY397-FAK”, the “cleaved PARP (UM apoptosis)” value [12] was “accumulation of cleaved PARP; also recorded: increased cleaved PARP” and the EC50 ([4]; Homo sapiens, SK-MEK-28 (BRAF mutant), control) was greater than 10000 nM. The MOB1/LATS interaction [13] was “enhanced”, the p909-LATS1 [13] was “increase” and the p1079-LATS1 [13] was “increase”. The p-MST1 [13] was “did not observe an increase”, the “pY26 MOB1” value ([13]; 0-10 μM, 2 hr) was “dose-dependent decrease” and the “YAP phosphorylation on serine 127 (pS127-YAP)” value ([13]; listed as FAKi) was “increase”. For the same compound, the “YAP phosphorylation on tyrosine 357 (Y357)” value ([13]; listed as FAKi) was “repressed; also recorded: diminished phosphorylation”, the “total YAP protein level” value ([13]; long-term (up to 36 hours)) was “downregulation” and the EC50 ([5]; Homo sapiens, 92.1, OMM1.3, OMM1.5, Mel270, Mel202, 72 hr, read-out: EC50, sensitivity of UM cell lines to FAK inhibition (cell viability)) was roughly 1000 nM. The “colony formation ability of UM cells” value [14] was “nearly abolished the colony formation ability” and the “mRNA of YAP-target genes CTGF and CYR61 (qPCR)” value [15] was “significant reduction”.
With `C[C@@H](N)[C@H]1CC[C@H](C(=O)Nc2ccncc2)CC1` [Y-27632] the “FAK activation by Gαq-DREADD” value [6] was “repressed FAK activation” and the “FAK activation (pY397-FAK) in UM cells” value [3] was “repressed FAK activation”.
For `Cc1ccc2c(c1)C(=O)C1(O)CCN(c3ccccc3)C1=N2` (stereo not drawn) [blebbistatin], the “FAK activation by Gαq-DREADD” value [6] was “repressed FAK activation” and the “FAK activation (pY397-FAK) in UM cells” value [3] was “repressed FAK activation”.
For verteporfin, the systemic toxicity [16] is listed as “high systemic toxicities”.
